The source of these data is ChEMBL document CHEMBL1201862, “PubChem BioAssay data set” (2004).

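These data come from cells grown in 96-well plates and exposed to compound for 48 hours at five concentrations. GI50 marks 50% less growth.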 Active and inactive are the calls of the source. Rule as the data show it: active = GI50 up to about 1.1 µM and inactive = higher.

Holding throughout (experiment): NCI anticancer screen, dose series, 48 h
Experiment [1] deals with ACHN.
Experiment [2] relates to U-251.
Experiment [3] relates to M14.
In experiment [4] the test system is HCT-15.
Experiment [5] concerns SNB-19.
Experiment [6] relates to UO-31.
In experiment [7] the test system is SF-539.
Experiment [8] relates to KM12.
Experiment [9] has as its system MDA-MB-435.
In experiment [10] the test system is SW-620.
Experiment [11] relates to OVCAR-4.
Experiment [12] has as its system LOX IMVI.
The subject of experiment [13] is SF-295.
The subject of experiment [14] is UACC-62.
Experiment [15] relates to TK-10.
For experiment [16], the system named is SK-MEL-2.
Experiment [17] deals with SN12C.
For experiment [18], the system named is OVCAR-3.
The test system of experiment [19] is NCI-H522.
The test system of experiment [20] is RXF 393.

As to `C=CCOCn1cnc2c(N)ncnc21`, the GI50 was > 100 µM (inactive) in experiment [1]; > 100 µM (inactive) in experiment [2]; > 100 µM (inactive) in experiment [3]; more than 100 µM in experiment [4]; > 100 µM (inactive) in experiment [5]; > 100 µM (inactive) in experiment [6]. Moreover, the GI50 in experiment [7], in experiment [8], in [9], in experiment [10], in experiment [11] and in experiment [12] was > 100 µM (inactive) in each case. The GI50 in [13], in experiment [14], in experiment [15], in experiment [16] and in experiment [17] was > 100 µM (inactive) in each case.

With `O=C1/C(=C/c2cccs2)NC(=S)N1CN1CCCCC1`, the GI50 in experiment [1] was 42.6 µM (inactive); in experiment [2] it was 85.9 µM (inactive); in experiment [3], 61.7 µM (inactive); in experiment [18] it was > 100 µM (inactive); in experiment [4] it was 29.9 µM; in [5] it was 29.7 µM (inactive). Moreover, the GI50 in [6] was 80.2 µM (inactive); in experiment [8], > 100 µM (inactive); in experiment [9], 85.1 µM (inactive); in experiment [10], 30.3 µM (inactive); in [11] it was 20.7 µM (inactive); in [12], 33 µM (inactive). For the same compound, the GI50 in experiment [19] is 71 µM (inactive); in [13], > 100 µM (inactive); in experiment [14], 55.8 µM (inactive); in [15] it was > 100 µM (inactive); in experiment [16], > 100 µM (inactive); in experiment [17], 97.5 µM (inactive).

Consider `COC(=O)[C@H](C)NC(=O)[C@H](NS(=O)(=O)c1nc2ccccc2s1)c1ccccc1`, for which the GI50 in experiment [1] was 33.9 µM (inactive); in experiment [2], 20.5 µM (inactive); in [3] it was 10.4 µM (inactive); in [4], 23.3 µM; in experiment [5], 27.4 µM (inactive); in experiment [6], 19.7 µM (inactive). For the same compound, the GI50 in experiment [7] was 15.6 µM (inactive); in experiment [8] it was 14 µM (inactive); in [9], 41 µM (inactive); in experiment [20], 16.9 µM (inactive); in [10] it was 37.3 µM (inactive); in experiment [11], 26.2 µM (inactive). The GI50 in experiment [12] is 15.6 µM (inactive); in [13], 39.1 µM (inactive); in [14], 14.9 µM (inactive); in [15] it was 58.1 µM (inactive); in [16] it was 11.3 µM (inactive).

On to `C=CCCCCCCCCC(=O)ON(Cc1ccc(O)c(OC)c1)C(=O)C(F)(F)F`, for which the GI50 is > 100 µM (inactive) in [1]; > 100 µM (inactive) in [2]; > 100 µM (inactive) in experiment [3]; more than 100 µM in experiment [4]; > 100 µM (inactive) in experiment [5]; 10.9 µM (inactive) in [6]. Further, the GI50 is > 100 µM (inactive) in experiment [7]; 52.5 µM (inactive) in experiment [8]; > 100 µM (inactive) in [9]; > 100 µM (inactive) in experiment [20]; > 100 µM (inactive) in experiment [10]; > 100 µM (inactive) in experiment [11]. Moreover, the GI50 in experiment [12] is > 100 µM (inactive); in experiment [13], > 100 µM (inactive); in experiment [14] it was 49 µM (inactive); in experiment [15], > 100 µM (inactive); in experiment [17] it was > 100 µM (inactive).

Regarding `Cc1ccc(SCC(CF)OC(C)n2cnc3c(Cl)nc(N)nc32)cc1` (stereo not given), the GI50 in experiment [1] is 35.2 µM (inactive); in [2], > 100 µM (inactive); in experiment [3], > 100 µM (inactive); in experiment [18] it was 85.7 µM (inactive); in experiment [4] it was more than 100 µM; in experiment [5] it was > 100 µM (inactive). The GI50 was 42.5 µM (inactive) in [6]; > 100 µM (inactive) in [7]; > 100 µM (inactive) in [8]; 78.3 µM (inactive) in experiment [9]; > 100 µM (inactive) in experiment [10]; 16 µM (inactive) in experiment [11]. For the same compound, the GI50 in experiment [12] was 70.8 µM (inactive); in [19], 18.7 µM (inactive); in experiment [13] it was 67.9 µM (inactive); in experiment [14], > 100 µM (inactive); in experiment [15], > 100 µM (inactive); in experiment [16], 69.8 µM (inactive). In experiment [17], the GI50 is 43.3 µM (inactive).

Turning to `COc1ccc(-c2nc3ncccn3c2-c2ccc([S+](C)[O-])cc2)cc1` (stereo not given), the GI50 in [1] was > 100 µM (inactive); in [2], > 100 µM (inactive); in experiment [3] it was > 100 µM (inactive); in experiment [18], > 100 µM (inactive); in [4], more than 100 µM; in experiment [5], > 100 µM (inactive). Moreover, the GI50 in [6] was > 100 µM (inactive); in [7] it was > 100 µM (inactive); in [8] it was 80.9 µM (inactive); in [9], 15.1 µM (inactive); in [10] it was > 100 µM (inactive); in experiment [11] it was > 100 µM (inactive). Further, the GI50 in experiment [12] was > 100 µM (inactive); in experiment [13], > 100 µM (inactive); in experiment [14], 54.7 µM (inactive); in experiment [16], > 100 µM (inactive); in experiment [17] it was > 100 µM (inactive).

In the case of `Cc1nn(C(=O)c2ccccc2O)c2c1C(c1ccc(O)cc1O)SC(=N)N2` (stereo not given), the GI50 in [1] is 4.75 µM (inactive); in experiment [2], 5.58 µM (inactive); in [3], 3.61 µM (inactive); in experiment [18], 2.96 µM (inactive); in experiment [4], 3.66 µM; in [5], 4.86 µM (inactive). Also, the GI50 in [6] was 2.84 µM (inactive); in [7], 3.77 µM (inactive); in experiment [8], 6.19 µM (inactive); in experiment [9], 4.05 µM (inactive); in [20], 5.52 µM (inactive); in [10], 5.04 µM (inactive). For the same compound, the GI50 is 2.94 µM (inactive) in [11]; 4.6 µM (inactive) in [12]; > 10 µM (inactive) in experiment [13]; 1.89 µM (inactive) in [14]; > 10 µM (inactive) in experiment [15]; > 10 µM (inactive) in [16]. The GI50 in experiment [17] was 9.71 µM (inactive).

`COC(=O)C1=C2SCc3ccc(cc3)CSC3=C(C(=O)OC)SC(=C(S2)S1)S3`: the GI50 in experiment [1], in experiment [2], in experiment [3], in experiment [18], in experiment [5] and in experiment [6] was > 100 µM (inactive) throughout. The GI50 in experiment [8] is > 100 µM (inactive); in [9], 49.4 µM (inactive); in [20], 67.3 µM (inactive); in experiment [10], > 100 µM (inactive); in [11], 64.6 µM (inactive); in [13], 91.8 µM (inactive). Besides, the GI50 in experiment [14], in [15], in [16] and in experiment [17] was > 100 µM (inactive) each time.
